Species: Rattus norvegicus
Assay: Open TG-GATES - Regimen: Single
Format: toxicity, organism-based, Sprague-Dawley
Design: regimen Single, gender Male, age 6 weeks
Details: in vivo, po, 15 mg/kg, route gavage, dose level Low; for APTT / Bas / Eos / Fbg / Hb / Ht / Lym / MCH / MCHC / MCV / Mono / Neu / PT / Plat / RBC / Ret / WBC: tissue Blood; for KIDNEY_L / KIDNEY_R / KIDNEY_TOTAL: tissue Kidney; for LIVER: tissue Liver; for A/G / ALP / ALT / AST / BUN / CRE / Ca / Cl / DBIL / GLC / IP / K / LDH / Na / PL / RALB / TBIL / TC / TG / TP / gamma-GTP: tissue Plasma

SMILES: S=C=Nc1cccc2ccccc12 [1-NAPHTHYLISOTHIOCYANATE]
- TERMINAL_BW (3 h): 226 g
- APTT (3 h): 18.2 s
- Bas (3 h): 0.2%
- Eos (3 h): 0.8%
- Fbg (3 h): 233 mg/dL
- Hb (3 h): 13.7 g/dL
- Ht (3 h): 38.1%
- Lym (3 h): 75.2%
- MCH (3 h): 22 pg
- MCHC (3 h): 35.8%
- MCV (3 h): 61.5 fL
- Mono (3 h): 3%
- Neu (3 h): 20%
- PT (3 h): 11.7 s
- Plat (3 h): 119.1 x10_4/uL
- RBC (3 h): 622.2 x10_4/ul
- Ret (3 h): 8.4%
- WBC (3 h): 91.8 x10_2/uL
- KIDNEY_L (3 h): 1 g
- KIDNEY_R (3 h): 1 g
- KIDNEY_TOTAL (3 h): 2 g
- LIVER (3 h): 10.2 g
- A/G (3 h): 1.6
- ALP (3 h): 1037.2 IU/L
- ALT (3 h): 42.2 IU/L
- AST (3 h): 75 IU/L
- BUN (3 h): 10.6 mg/dL
- CRE (3 h): 0.4 mg/dL
- Ca (3 h): 10.8 mg/dL
- Cl (3 h): 103.8 meq/L
- DBIL (3 h): 0.1 mg/dL
- GLC (3 h): 220.4 mg/dL
- IP (3 h): 10 mg/dL
- K (3 h): 4.1 meq/L
- LDH (3 h): 199.8 IU/L
- Na (3 h): 142 meq/L
- PL (3 h): 159.4 mg/dL
- RALB (3 h): 3.4 g/dL
- TBIL (3 h): 0.1 mg/dL
- TC (3 h): 75.2 mg/dL
- TG (3 h): 135.2 mg/dL
- TP (3 h): 5.6 g/dL
- gamma-GTP (3 h): 0.8 IU/L
- TERMINAL_BW (6 h): 220 g
- APTT (6 h): 18.5 s
- Bas (6 h): 0%
- Eos (6 h): 0.8%
- Fbg (6 h): 243.4 mg/dL
- Hb (6 h): 13.8 g/dL
- Ht (6 h): 38.6%
- Lym (6 h): 75.2%
- MCH (6 h): 21.8 pg
- MCHC (6 h): 35.7%
- MCV (6 h): 60.9 fL
- Mono (6 h): 3.2%
- Neu (6 h): 19.8%
- PT (6 h): 11.8 s
- Plat (6 h): 120.7 x10_4/uL
- RBC (6 h): 634.6 x10_4/ul
- Ret (6 h): 7%
- WBC (6 h): 100.7 x10_2/uL
- KIDNEY_L (6 h): 1 g
- KIDNEY_R (6 h): 1 g
- KIDNEY_TOTAL (6 h): 1.9 g
- LIVER (6 h): 9.6 g
- A/G (6 h): 1.7
- ALP (6 h): 1074.4 IU/L
- ALT (6 h): 32.4 IU/L
- AST (6 h): 68.2 IU/L
- BUN (6 h): 8 mg/dL
- CRE (6 h): 0.4 mg/dL
- Ca (6 h): 10.5 mg/dL
- Cl (6 h): 103.8 meq/L
- DBIL (6 h): 0.1 mg/dL
- GLC (6 h): 235.8 mg/dL
- IP (6 h): 10 mg/dL
- K (6 h): 4.1 meq/L
- LDH (6 h): 196 IU/L
- Na (6 h): 141.6 meq/L
- PL (6 h): 140.2 mg/dL
- RALB (6 h): 3.5 g/dL
- TBIL (6 h): 0.1 mg/dL
- TC (6 h): 77 mg/dL
- TG (6 h): 61 mg/dL
- TP (6 h): 5.6 g/dL
- gamma-GTP (6 h): 1.2 IU/L

Reference: ChEMBL document CHEMBL3885861, “Open TG-GATES”
